≈ marks a conversion by molar mass, not a printed value. Read-outs that look alike come from different tables or passages of the source.
Key:
[1] = system: C. glabrata 2586 clinical strain; experiment: MIC90/MFC, EUCAST broth microdilution; format: cell-based, Candida glabrata
C. glabrata ATCC 90030 = experiment: MIC90/MFC, EUCAST broth microdilution; format: cell-based, Candida glabrata
[2] = system: C. glabrata 2853 clinical strain; experiment: MIC90/MFC, EUCAST broth microdilution; format: cell-based, Candida glabrata
[3] = system: C. glabrata ATCC 90030 biofilm; experiment: Biofilm eradication on polystyrene, fluorescence microscopy (Syto9/PI); format: cell-based, Candida glabrata
Protocol: (§1) C. glabrata biofilm eradication on polystyrene surfaces was assessed according to the following procedure: 1 mL of C. glabrata culture, 10^6 CFU/mL in RMPI 1640 MOPS-buffered medium, was pipetted into the wells of a 48-well adherent plate. Cultures were incubated at 37 °C for 72 h with shaking (400 RPM). […] Non-treated cells were used as the control. This experiment was carried out in triplicate. The analysis of the biofilm eradication of C. glabrata strains on polystyrene surfaces was performed using fluorescence microscopy (FM). For further information, see Section 4.12. below.
(§2) The 72 h biofilm of C. glabrata strains on polystyrene surfaces was stained on 48-well adherent plates with 1 µL of propidium iodide (Ex λ = 543 nm/Em λ = 617 nm) and 1 µL of SYTO9 (Ex λ = 488 nm/Em λ = 503 nm) for 30 min using a LIVE/DEAD BacLight Bacterial Viability Kit (Thermo Fisher Scientific, Waltham, MA USA). Imaging was performed using a fluorescence microscope (FM) BX51 (Olympus, Tokyo, Japan) equipped with an Orca Flash 40 camera (Hamamatsu, Hamamatsu City, Japan) and 10× objective Plan APO. Scale bar = 100 µm. Detailed computer qualitative and quantitative analyses of the obtained pictures were performed by estimating the coverage area on the polystyrene plate (the percentage of the area occupied by the fungal biofilm). The cell viability analysis was performed by calculating the fluorescence intensity of the dyes (Syto9/PI) used. The acquired images were processed and analyzed using Fiji/ImageJ software ver. 1.53c (NIH, Bethesda, MD, USA). First, maximum intensity projections (MIPs) were obtained from stacks of images. The areas of the binary images were transferred into the original live and dead channel MIP images. The mean fluorescence intensities of all detected objects per field of view were calculated using ImageJ’s Analyze Threshold function (Software: ImageJ version 1.53 from Softonic).

C. glabrata 2853 biofilm = experiment: as above; format: cell-based, Candida glabrata
Protocol: as §1, §2

C. glabrata 2586 biofilm = experiment: as above; format: cell-based, Candida glabrata
Protocol: as §1, §2

[4] = system: Balb/3T3 mouse embryonic fibroblasts; experiment: Cell proliferation assay (MTT test); format: cell-based; design: Survival of the tested cell line: dose or concentration left out as unconfirmed; conditions: 24 h
Protocol: Balb/3T3 (ATCC CCL-163) mouse embryonic fibroblasts were cultured in DMEM medium supplemented with 10% fetal bovine serum, 1 mM L-glutamine, and a 1% penicillin/streptomycin solution and were used for our cytotoxicity studies. The cells were cultured at 37 °C and 5% CO2 until the cell density of 10^6 mL^−1 was obtained. Such cells were then seeded in 24-well tissue microplates (2 × 10^4 cells per well) and allowed to adhere overnight under the abovementioned conditions. Cytotoxicity tests were carried out on the cells prepared in this way.
The newly synthesized AABs (C9, C11, C13, and C15) were selected based on previous studies. They were analyzed at the concentrations of 0.25, 0.5, 1, 2, and 3 µM. […] The BALB-3T3 cells were treated with the prepared mixtures, dissolved in a complete cell culture medium, and then incubated for 24 h under the abovementioned conditions. Three independent replicates were performed for each combination of compounds.
The cytotoxic effect of the tested compounds in combination with β-AE was evaluated by measuring mitochondrial dehydrogenase activity using the MTT assay. After a 24 h incubation period, the medium supplemented with the 1mM MTT solution was added to each well. The cultures were continued for another 4 h under the conditions enriched with 5% CO2. After this time, the supernatant was collected, and MTT formazan was extracted from the cells using DMSO. The reaction was then stopped with Sörensen buffer (0.1 mol/L glycine; 0.1 mol/L NaCl; and pH 10.5). The percentage of cytotoxicity was calculated by comparing the absorbance values (λ = 560 nm) of the test sample to the control sample, which was untreated fibroblast cells. In the test performed, the negative control (C−) (sample not treated; PBS added) and positive control (C+) were fibroblast cells treated with 1% SDS [60].

sheep red blood cells = experiment: Hemolysis assay; format: cell-based
Protocol: This test was performed according to a modified method. The hemolytic activity of the compounds was determined using sheep red blood cells. The blood was centrifuged (2000 RPM; 15 min) and rinsed 3 times with PBS. A total of 25 µL of erythrocytes for each sample were added to 500 µL of PBS to obtain the final concentration for the newly synthesized AABs: 0.25 µM, 0.5 µM; 1 µM, 2 µM; and 3 µM, and for β-AE, obtaining the following final concentrations: 100 µg/mL; 250 µg/mL; 500 µg/mL; 750 µg/mL; and 1000 µg/mL. The negative control (C−) consisted of erythrocytes suspended in PBS, and the positive control consisted of erythrocytes suspended in a 1% SDS solution. The samples were incubated for 2 h at 37 °C with shaking at 140 RPM. After this time, the blood cells were centrifuged (10 min; 2500 RPM), and 300 μL of the supernatant was transferred into a 96-well titration plate. Absorbance measurements were performed at a wavelength of λ = 540 nm. Measurements were performed in 10 repetitions. Finally, the values that were obtained from the samples treated with the test compound (OD test) were normalized relative to the positive (100% lysis; OD (C+)) and negative (untreated; OD (C−)) control samples to give the hemolysis ratio (HR) by using the following equation: HR (%) = OD test−OD (C−)/OD (C+) − OD (C−) × 100%.

[5] = Nakaseomyces glabratus, AAB alone, read-out: MIC converted to

CCCCCCCCCC(=O)N(C)CCC[N+](C)(C)CC(=O)[O-] [C9]
MIC90 ([1]; AAB alone): 3 µM/mL | MIC [1, 5]: 985 µg/mL (≈ 3000 µM) | MIC90 (C. glabrata ATCC 90030; ATCC 90030, AAB alone): 3 µM/mL | MIC (C. glabrata ATCC 90030; Nakaseomyces glabratus, ATCC90030, reference strain, AAB alone, read-out: MIC converted to): 985 µg/mL (≈ 3000 µM) | MIC90 ([2]; AAB alone): 1 µM/mL | MIC [2, 5]: 328 µg/mL (≈ 1000 µM) | Biofilm surface area ([3]; C9 combined with β-AE, optimal concentration configuration, control 88.77%): 1.37% | Percentage of live cells ([3]; C9 in combination with β-AE, 72 h, control 98.35%): 1.64% | viability at 1 µM ([3]; Nakaseomyces glabratus, ATCC90030, AAB alone 1 μM, 72 h, read-out: Biofilm Viability [%] 90030 Live): 83.6% | viability at 2 µM ([3]; Nakaseomyces glabratus, ATCC90030, AAB alone 2 μM, 72 h, read-out: Biofilm Viability [%] 90030 Live): 23.8% | viability at 3 µM ([3]; Nakaseomyces glabratus, ATCC90030, AAB alone 3 μM, 72 h, read-out: Biofilm Viability [%] 90030 Live): 21.4% | Biofilm surface area (C. glabrata 2853 biofilm; C9 combined with β-AE, optimal concentration configuration, control 84.52%): 1.12% | Percentage of live cells (C. glabrata 2853 biofilm; C9 in combination with β-AE, 72 h, control 97.46%): 3.33% | viability at 1 µM (C. glabrata 2853 biofilm; Nakaseomyces glabratus, 2853BIOFILM, AAB alone 1 μM, 72 h, read-out: Biofilm Viability [%] 2853 Live): 82.2% | viability at 2 µM (C. glabrata 2853 biofilm; Nakaseomyces glabratus, 2853BIOFILM, AAB alone 2 μM, 72 h, read-out: Biofilm Viability [%] 2853 Live): 76.2% | viability at 3 µM (C. glabrata 2853 biofilm; Nakaseomyces glabratus, 2853BIOFILM, AAB alone 3 μM, 72 h, read-out: Biofilm Viability [%] 2853 Live): 66.4% | Biofilm surface area (C. glabrata 2586 biofilm; C9 combined with β-AE, optimal concentration configuration, control 73.17%): 2.1% | Percentage of live cells (C. glabrata 2586 biofilm; C9 in combination with β-AE, 72 h, control 97.99%): 1.93% | viability at 1 µM (C. glabrata 2586 biofilm; Nakaseomyces glabratus, 2586BIOFILM, AAB alone 1 μM, 72 h, read-out: Biofilm Viability [%] 2586 Live): 3.28% | viability at 2 µM (C. glabrata 2586 biofilm; Nakaseomyces glabratus, 2586BIOFILM, AAB alone 2 μM, 72 h, read-out: Biofilm Viability [%] 2586 Live): 3.01% | viability at 3 µM (C. glabrata 2586 biofilm; Nakaseomyces glabratus, 2586BIOFILM, AAB alone 3 μM, 72 h, read-out: Biofilm Viability [%] 2586 Live): 2.52% | Surviving cells ([4]; 0.25 to 3 µM/mL): 100% | Hemolysis (sheep red blood cells; all concentrations tested (0.25 up to 3 µM)): not hemolytic at all concentrations tested

β-aescin
MFC [1]: 256 µg/mL | MIC90 [1]: 256 µg/mL | MFC (C. glabrata ATCC 90030; ATCC 90030): 256 µg/mL | MIC90 (C. glabrata ATCC 90030; ATCC 90030): 128 µg/mL | MFC [2]: 128 µg/mL | MIC90 [2]: 128 µg/mL | Biofilm Viability [%] 90030 Live ([3]; 1 MIC β-AE, 72 h): 76.70% | Area of the biofilm ([3]; β-AE 1 × MIC, 72 h, control 88.77%): 68.98% | Biofilm Viability [%] 2853 Live (C. glabrata 2853 biofilm; 1 MIC β-AE, 72 h): 92.13% | Area of the biofilm (C. glabrata 2853 biofilm; β-AE 1 × MIC, 72 h, control 84.52%, listed as β-AE): 45.63% | Biofilm Viability [%] 2586 Live (C. glabrata 2586 biofilm; 1 MIC β-AE, 72 h): 9.33% | Area of the biofilm (C. glabrata 2586 biofilm; β-AE 1 × MIC, 72 h, control 73.17%, listed as β-AE): 59.3% | Survival of the tested cell line ([4]; 64–512): 83–85% | Hemolysis (sheep red blood cells; 100 up to 1000 µg/mL, 2 h, 37 °C): hemolytic at all concentrations tested

— publication PMC10932281, “A Combination of β-Aescin and Newly Synthesized Alkylamidobetaines as Modern Components Eradicating the Biofilms of Multidrug-Resistant Clinical Strains of Candida glabrata” (International Journal of Molecular Sciences, 2024)
